Results on two compounds are retold here after US20030181449A1 (priority 2003, published 2003).

For data set [1], the target named is T1, NMDA receptor glycine site (Rattus norvegicus, UniProt P35439).
T1 construct: The rat brain membranes used in the experiments were obtained from Analytical Biological Services Inc; tissue Analytical Biological Services Inc; host or cells: rat brain membranes (cerebral cortex and hippocampus, male Sprague Dawley rats)
Put plainly: Test A: Inhibition of binding of [3H]-MDL105,519 to brain membranes. Conditions: inhibition of 1.2 nM [3H]MDL105,519 binding, brain membranes (rat or human not given). The source says: Test A: Inhibition of Binding of [^3H]-MDL105,519:
Binding of compounds to the NMDA receptor glycine site may be assessed by measuring the ability of test compounds to inhibit the binding of tritiated MDL105,519 to brain membranes bearing the receptor.
Briefly, fresh brain tissue including cerebral cortex and hippocampus from male Sprague Dawley rats was homogenized in 0.32 M sucrose and centrifuged at low speed to separate cellular membranes from other cellular components. The membranes were then washed 3 times using deionized water, followed by treatment with 0.04% Triton X-100. Finally, membranes were washed six times in 50 mM Tris citrate buffer, pH 7.4, and frozen at −80° C. until use.
[^3H]MDL105,519 (72 Ci/mmol) was purchased from Amersham. Cold MDL105,519 was purchased from Sigma/RBI. […] On the day of the experiment, brain membranes were thawed at room temperature and suspended in 50 mM tris acetate buffer, pH 7.4 (“TAB”). Seventy-five micro grams per milliliter protein (by using the BioRad dye) were used for competition binding. The experiments were carried out using 96-well plates. […] Non specific binding was determined by using 100 μM of unlabeled MDL105,519. […] After incubation, unbound [^3H]MDL105,519 was removed by filtration onto GF/B Unifilter plates using a Packard harvester. Filters were washed four times with ice cold TAB (total of 1.2 mL buffer). The plates were dried overnight at room temperature and bound radioactivity was measured on a Packard TopCount after the addition of 45 μL per well of the MICROSCINT O.
Human Brain Membranes: Human brain membranes were obtained from Analytical Biological Services Inc., and assays were performed as described for rat membranes.
Data analysis: Data was analyzed using a Microsoft Excel spreadsheet and GraphPad Prizm software and potency of compounds is expressed as the Ki (nM).

Data set [2] has as its system formalin-induced nociceptive behaviors in rats. Put plainly: Test B: Formalin test (formalin-induced paw flinches). The format is in vivo, rat. Conditions: dose 200 (unit not given), dosed three hours prior to formalin. The source says: The Formalin test is an assay that assesses the capacity of a compound to inhibit formalin-induced nociceptive behaviors in rats (D. Dubuisson, et al., Pain 4, 161-174 (1977); H. Wheeler-Aceto et al., Psychopharmacology 104, 3544 (1991); T. J. Coderre, et al., Pain 54, 43-50 (1993)). In the test, two distinctive phases of formalin-induced behaviors are observed. A first phase response, caused by acute nociception to the noxious chemical (formalin) injected into the paw, occurs between zero and five minutes. A quiescent period of 5 to 15 min post injection follows. After the quiescent period a second phase response, caused by sensitization of the central neurons in the dorsal horn, occurs after 15 minutes and lasts up to 60 minutes. Sensitization of the central neurons in the spine augments a noxious afferent input and causes a stronger pain barrage to be transmitted to the brain. Therefore, inhibition of the second phase response indicates a central mechanism of drug action.
The procedure for the formalin test is as follows: male rats are placed in a plexiglass chamber and observed for 30-45 min. to observe their baseline activity. Animals are either pretreated with vehicle or with different doses of a test compound. Animals are dosed with vehicle or test compound three hours prior to injection of 0.05 mL of sterile 1% formalin under the dorsal skin of a hind paw. The number of paw flinches (responses) during the first phase (0-5 min.) and the second phase (20-35 min.) are scored and recorded. Flinch response is compared with the mean score of a saline control group and calculated as percentage inhibition. The ED50 is the dose of compound which produces 50% inhibition of nociceptive response in the first or second phase response. First phase responses may be inhibited by compounds that act peripherally and by compounds that act centrally. Second phase response are inhibited by centrally active compounds.
Student's t-test was used for statistical analysis to determine the significance of compound effects. Data are reported as a dose that yielded a % inhibition of a response.

In data set [3] the test system is CCI rats (thermal hyperalgesia). Put plainly: Test C: Neuropathic pain model (Chronic Constriction Injury), thermal hyperalgesia, paw withdrawal latency. Conditions: oral. The format is in vivo, rat. The source says:
Test C: Neuropathic Pain Model (Chronic Constriction Injury):
The anti-hyperalgesic properties of a compound may be tested with the Chronic Constriction Injury (“CCI”) model. The test is a model for neuropathic pain associated with nerve injuries that can arise directly from trauma and compression, or indirectly from a wide range of diseases such as infection, cancer, metabolic conditions, toxins, nutritional deficiencies, immunological dysfunction, and musculoskeletal changes. In the model a unilateral peripheral hyperalgesia is produced in rats by nerve ligation (G. J. Bennett, et al., Pain 33, 87-107 (1988)).
Procedurally, Sprague-Dawley rats (250-350 g) are anesthetized with sodium pentobarbital and the common sciatic nerve is exposed at the level of the mid thigh by blunt dissection through the biceps femoris. A section of nerve (about 7 mm), proximal to the sciatic trifucation, is freed of tissue and ligated at four positions with chromic gut suture. The suture is tied with about 1 mm spacing between ligatures. The incision is closed in layers and the animals are allowed to recuperate. Thermal hyperalgesia is measured using a paw-withdrawal test (K. Hargreaves, et al., Pain 32, 77-88 (1988)). To perform the test, animals are habituated on an elevated glass floor. A radiant heat source is aimed at the mid-plantar hindpaw (sciatic nerve territory) through the glass floor with a 20 second cut-off used to prevent injury to the skin. The latencies for the withdrawal reflex in both hind paws are recorded.
Injured paws with ligated nerves show shorter paw withdrawal latencies compared to the uninjured or sham operated paws. Responses to test compounds are evaluated at different times after oral administration to determine the onset and duration of compound effect. When performing the test, groups of CCI rats receive either vehicle or the test compound orally three times daily for 5 days. Paw withdrawal latencies are measured each day 10 min before and 2 or 3 hr. after the first daily dose. Compound efficacy is expressed as mean percentage decrease of hyperalgesia compared to that of vehicle-treated animals, calculated as follows:
(Mean of vehicle group−Mean of compound group)×100/(Mean of vehicle group).
Data analysis was performed by the multiple means comparison test (Dunnett's test) and results are expressed and compound potencies are expressed as the MED (minimum effective dose), in mg/Kg/day, that yields a percent (%) decrease in hyperalgesia that is statistically significant.

With `CSc1ccccc1Cn1nc(O)c2nc3cc(Cl)ccc3c(O)c2c1=O` [Ex. 7, 7-Chloro-4,10-dihydroxy-2-[(2-methylthio)phenylmethyl]-2-hydropyridazino[4,5-b]quinoline-1-one], the melting point is 290 to 292 °C. The inhibition constant Ki in data set [1] worked out at 111 nM.

Take `Cc1cc(C)c(-n2nc(O)c3[nH]c4cc(Cl)ccc4c(=O)c3c2=O)c(C)c1` [Ex. 1, 7-Chloro-4-hydroxy-2-(2,4,6-trimethylphenyl)-1,2,5,10-tetrahydropyridazino[4,5-b]quinoline-1,10-dione]: the melting point lay in the range of 187 to 189 °C. Further, the Ki in data set [1] came out at 39.9 nM. Further, the “Test B First phase Dose (% Inh.): % inhibition of nociceptive response” value in data set [2] (first phase (0-5 min)) is reported as 200 (43%). In addition, the “Test B Second phase Dose (% Inh.): % inhibition of nociceptive response” value in data set [2] (second phase (20-35 min)) was 200 (54%). The “Test C (% Inh.): percent decrease in hyperalgesia” value in data set [3] (at the MED) was 82%. For the same compound, in data set [3] (three times daily for 5 days), the “Test C MED (minimum effective dose)” value is 15 mg/kg/day.
